Source: patent publication US20080039532A1, “Compounds For Specific Viral Target” (priority 2004, published 2008)
“And” between values parts separate entries of the source, which are not always exact repeats. Equal values may be shown once. Ends that are not written are not given here. linker‑R1‑R2‑M = not defined here

Assays:
HIV-1 Strain IIIB = experiment: Determination of IC-50 of antiviral drugs by reverse transcriptase assay in PHA-stimulated CBMC; assay type: cell-based; details: for RT Results (cpm) (Day 7): +drugs 7 days, replicate columns; for anti-HIV activity (inhibition of reverse-transcriptase activity of HIV-1) as compared to native C34: standard in vitro assay
Method: Determination of IC-50 for Assessing the Activity of Antiviral Drugs Using HIV-1 Strain IIIB
The assay is performed in a 96-well plate with 500,000 PHA-stimulated CBMC (cord blood mononuclear cells) per well, 2 wells per drug concentration, with a minimum of 6 concentrations per drug. Media used is RPMI 1640 with 10% FBS, penicilin (100 U/ml), streptomycine (100 μg/ml), glutamine (2 mM), hydrocortisone (5 μg/ml), and IL-2 (20 U/ml).
Control drug stocks are prepared by adding 2 ml of buffer to the native compounds or the reactive compounds. The stocks are stored at −20 degrees Celsius. The drug concentrations were determined by ConjuChem Inc. [drawing 76] Addition of the Compound Prior to Cell Infection
Target cells are incubated with different compounds concentrations for 30-60 minutes at 37 degrees Celsius prior to addition of virus (multiplicity of infection (MOI)=0.1-1.0). Following plating, target cells are in the continuous presence of the different concentrations of inhibitor for a total of 7 days.
Following 3-4 days of incubation, each compound is replenished.
Reverse transcriptase assay is used to measure the IC50.
CC50 (cytotoxic concentration) is also evaluated for all compounds.
3TC is used as a control inhibitor

[1] = molecular target: N36 peptide (CJC-1592) derived from the N-heptad repeat of HIV-1's gp41 glycoprotein (Human immunodeficiency virus type 1 group M subtype B, UniProt P04578); details: 1 hour incubation at room temperature; 17.5% acrylamide; compared to native C34
Method: Following the 1 hour incubation at room temperature, at least 20 micrograms of total N36/C34 peptide mixture were loaded into each well and separated using Native-polyacrylamide gel electrophoresis (17.5% acrylamide) and stained using Coomassie Brilliant Blue. Unlike SDS-PAGE, Native-PAGE allows one to visualize the formation of six-helix bundles at approximately 28 kDa composed of three central N36 peptides surrounded by three C34 peptides. The formation of this structure and its analogs among other viruses is critical to the subsequent membrane fusion events.

Which results are given for “SEQ ID NO: 32: C34 with linker-R1-R2-M inserted at position Asp5 (Ac-WMEWK(linker‑R1‑R2‑M)REINNYTSLIHSLIEESQNQQERNEQELL; not fully specified; reading uncertain)”?
RT Results (cpm) (Day 7) (HIV-1 Strain IIIB; Conc 125 nm): 6322 cpm and 6929 cpm and 5909 cpm; RT Results (cpm) (Day 7) (HIV-1 Strain IIIB; Conc 600 nm): 6477 cpm and 11889 cpm and 6030 cpm; RT Results (cpm) (Day 7) (HIV-1 Strain IIIB; Conc 3000 nm): 7967 cpm and 5896 cpm and 6208 cpm; efficiency of the binding element in binding to its viral target, compared to native C34 (HIV-1 Strain IIIB; inferred from anti-HIV activity, N-heptad repeat of HIV-1's gp41): as efficient in binding to its viral target as native C34; anti-HIV activity (inhibition of reverse-transcriptase activity of HIV-1) as compared to native C34 (HIV-1 Strain IIIB): as effectively as the native C34; binding of C34 derivative to N36 peptide on Native-PAGE [1]: does not impede C34 from binding to its target N36 peptide

With “SEQ ID NO: 93: native (unreactive, non-covalent) version of C34 (Ac-WMEWDREINNYTSLIHSLIEESQNQQERNEQELL) [reference compound]” as the substance, how does the “RT Results (cpm) (Day 7)” value (HIV-1 Strain IIIB; Conc 125 nm) read?
Its value is 5854 cpm and 5040 cpm and 5219 cpm.

What about the “RT Results (cpm) (Day 7)” value (HIV-1 Strain IIIB; Conc 600 nm) of the same substance?
Its value is 4924 cpm and 5850 cpm and 5093 cpm.

What about the “RT Results (cpm) (Day 7)” value (HIV-1 Strain IIIB; Conc 3000 nm) of the same substance?
Its value is 5811 cpm and 6955 cpm and 5973 cpm.

What about the “anti-HIV activity (inhibition of reverse-transcriptase activity of HIV-1) as compared to native C34” value (HIV-1 Strain IIIB) of the same substance?
Its value is “essentially no loss in anti-HIV activity”.
